Patent US20040058948A1, “Mappicine analogs, methods of inhibiting retroviral reverse transcriptase and methods of treating retroviruses” (priority 2002, published 2004)
Where “and” joins values, the source holds several entries; their conditions need not be identical. Equal values may be shown once. Read-outs that look alike come from different tables or passages of the source.

Experiments:
[1] = molecular target: T1, RNA-dependent DNA polymerase activity of HIV reverse transcriptase (Human immunodeficiency virus type 1 group M subtype B, UniProt P04585); assay: RNA-dependent DNA polymerase activity assay of HIV reverse transcriptase; assay type: biochemical, HIV-1; conditions: 10 μM inhibitor concentration, activity with analog / without analog x 100; for remaining activity at 10 µM: read-out: Residual activity (%) Polymerase
T1 construct: made in house
Outline: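 HIV reverse transcriptase RNA-dependent DNA polymerase activity measured with and without mappicine analogs at 10 μM final. Values are % residual activity: activity with compound divided by activity without, ×100.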

HIV-1 replication [2] = assay: Cell culture viral growth assay (HIV-1 replication); assay type: cell-based
[3] = molecular target: T2, RNase H activity of HIV reverse transcriptase (Human immunodeficiency virus type 1 group M subtype B, UniProt P04585); assay: Fluorescence (FRET)-based RNase H activity assay of HIV reverse transcriptase; assay type: biochemical, HIV-1; parameters: final concentration of 2.5 nM of the p51/p66 RT heterodimer in the assay; made in house; conditions: for remaining activity at 10 µM / Residual activity (%) RNase H: 10 μM inhibitor concentration, activity with analog / without analog x 100; for remaining activity at 10 µM: read-out: Residual activity (%) RNase H; for IC50: read-out: IC50 (μM) against HIV RNase H in vitro
Outline: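 p51/p66 HIV-1 RT (usually 2.5 nM) cleaving a 3′-fluorescein RNA/5′-DABCYL DNA hybrid (2.5 μM stock) in 50 mM Tris pH 8.0, 60 mM KCl, 2.5 mM MgCl2, 37 °C; fluorescence rise (ex 490/em 528 nm) read over 3–60 min. Mappicine analogs at 10 μM; % residual activity or % inhibition versus compound-free enzyme.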

HIV-1 replication [4] = conditions: published compounds, in words; cited from earlier work
cells [5] = conditions: published compounds, in words; cited from earlier work
[6] = molecular target: T2, RNase H activity of HIV reverse transcriptase; conditions: read-out: IC50 RNase H inhibition; literature value (Borkow et al. 1997); cited from earlier work
cells [7] = conditions: published compound, in words; cited from earlier work
[8] = Human immunodeficiency virus 1, read-out: EC50 (μM) against HIV-1 replication

SMILES | Residual activity (%) Polymerase [1] | Residual activity (%) RNase H [3] | further results
CCC(O)c1cc2n(c(=O)c1C)Cc1c-2nc2ccc(NC(=O)OC(C)(C)C)cc2c1[Si](C)(C)C (stereo not shown) [AG 2M, 2-tert-Butyloxycarbonylamino-7-(1-hydroxypropyl)-8-methyl-12-trimethylsilanyl-11H-indolizino[1,2-b]quinolin-9-one] | – | – | remaining activity at 10 µM [1]: 80%; EC50 (HIV-1 replication [2]; [8]): ~5 µM; remaining activity at 10 µM [3]: 47%; IC50 [3]: < 10 µM and 8 µM
O=C(O)C(=NNc1ccc(Cl)cc1)C(=O)O [CPHM, 2-[(4-chlorophenyl)-hydrazono]-malonic acid] | – | – | antiviral activity against HIV-1 replication in cultured cells (HIV-1 replication [4]): cannot inhibit HIV-1 replication in cultured cells; ability to penetrate cells (cells [5]): Neither CPHM nor BTOBA are able to penetrate cells
CC(C)(C)c1ccc(C(=O)NN=Cc2c(O)ccc3ccccc23)cc1 [BBNH, N-4-(t-butylbenzoyl)-2-hydroxy-1-napthaldehyde hydrazone] | – | – | EC50 (HIV-1 replication [2]; Human immunodeficiency virus 1, cell culture viral growth assay, read-out: EC50 (μM) against HIV-1 replication): 1.5 µM; IC50 [3]: 1.8 µM; IC50 [6]: ~2 µM; antiviral activity against HIV-1 replication in cultured cells (HIV-1 replication [4]): demonstrated antiviral activity against HIV-1 replication in cultured cells; toxicity to cells (cells [7]): highly toxic to cells at concentrations only slightly above those that inhibit virus replication
CCc1c2c(nc3ccc(N)cc13)-c1cc(C(O)CC)c(C)c(=O)n1C2 (stereo not shown) [AG 6M, 2-Amino-12-ethyl-7-(1-hydroxypropyl)-8-methyl-11H-indolizino[1,2-b]quinolin-9-one] | – | – | remaining activity at 10 µM [1]: 76%; EC50 (HIV-1 replication [2]; [8]): ~5 µM; remaining activity at 10 µM [3]: 57%; IC50 [3]: < 10 µM and 10 µM
CCCCCCc1c2c(nc3ccc(C)cc13)-c1cc(C(O)Cc3ccccc3)c(C)c(=O)n1C2 (racemic) [8Cε] | 76% | 76% | –
CCC(=O)c1cc2n(c(=O)c1C)Cc1c-2nc2ccccc2c1-c1ccccc1 [3Aακ] | 64% | 87% | –
Cc1c(C(O)CCC2CCCCC2)cc2n(c1=O)Cc1c-2nc2ccccc2c1[Si](C)(C)C(C)(C)C (racemic) [4Aδ] | 45% | 95% | –
Cc1ccc2nc3c(c([Si](C)(C)C(C)(C)C)c2c1)Cn1c-3cc(C(O)CCC2CCCCC2)c(C)c1=O (racemic) [4Cδ] | 61% | 109% | –
CCC(=O)c1cc2n(c(=O)c1C)Cc1c-2nc2ccc(C)cc2c1[Si](C)(C)C(C)(C)C [4Cακ] | 52% | 90% | –
COc1ccc2nc3c(c([Si](C)(C)C(C)(C)C)c2c1)Cn1c-3cc(C(=O)CCC2CCCCC2)c(C)c1=O [4Dδκ] | – | – | Residual activity (%) Polymerase ([1]; 10 µM): 50% and 64%; Residual activity (%) RNase H ([3]; 10 µM): 83% and 97%
O=C(O)C(=O)CC(=O)c1ccc(NC(=O)c2ccccc2)s1 [BTOBA, 4-[5-(benzoylamino)thien-2-yl]-2,4-dioxobutanoic acid] | – | – | antiviral activity against HIV-1 replication in cultured cells (HIV-1 replication [4]): cannot inhibit HIV-1 replication in cultured cells; ability to penetrate cells (cells [5]): Neither CPHM nor BTOBA are able to penetrate cells
Cc1ccc2nc3c(c(-c4ccccc4)c2c1)Cn1c-3cc(C(=O)C(C)(C)C)c(C)c1=O [3Cβκ] | 63% | 96% | –
CCCCCCc1c2c(nc3ccc(OC)cc13)-c1cc(C(O)CC)c(C)c(=O)n1C2 (racemic) [8Dα] | 85% | 66% | –
Cc1c(C(O)C(C)(C)C)cc2n(c1=O)Cc1c-2nc2ccccc2c1[Si](C)(C)C(C)(C)C (racemic) [4Aβ] | 71% | 101% | –
COc1ccc2nc3c(c([Si](C)(C)C(C)(C)C)c2c1)Cn1c-3cc(C(O)Cc2ccccc2)c(C)c1=O (racemic) [4Dε] | 49% | 76% | –
CCCCCCc1c2c(nc3ccccc13)-c1cc(C(O)C(C)(C)C)c(C)c(=O)n1C2 (stereo not shown) [8Aβ] | 103% | 91% | –
Cc1ccc2nc3c(c([Si](C)(C)C)c2c1)Cn1c-3cc(C(=O)CCC2CCCCC2)c(C)c1=O [5Cδκ] | 59% | 99% | –
CCCCCCc1c2c(nc3ccccc13)-c1cc(C(=O)CCC3CCCCC3)c(C)c(=O)n1C2 [8Aδκ] | 63% | 97% | –
